{
  "source": "patent US9096581B2",
  "about": "“Fluoroethyl thiamine or salts thereof and application thereof in preparation of anticoccidial drugs” (GUANGZHOU ORIGMOL FEED-ADDITIVE CO., LTD, priority 2012, dated 2015)",
  "system": "Eimeria tenella GD strains",
  "test": "Anticoccidial dose research in chickens infected with Eimeria tenella GD (Embodiment 2)",
  "assay_type": "in vivo",
  "parameters": "oocyst value: scale not given here",
  "settings": "for number of oocysts in cecum / average weight gain: 7th day; for lesion value: cecum, 7 days after infecting, scale 0-40; for survival rate / average weight gain / bloody feces scoring: chickens; for bloody feces scoring: 5 days after infecting, score 0-4; for oocyst value: converted per Table 2; for relative weight gain rate: vs non-infected non-drug control",
  "text": "1-day-old Lingnan yellow chickens, purchased from Poultry Research Unit, Bureau of Animal Husbandry, Guangdong Academy of Agricultural Sciences, bred under coccidium-free environment, and subjected to experiment after no coccidium oocyst is found in feces through microscopic examination when the chickens are 14 days old. Perfect compound feed for chickens: prepared by Huizhou Yuantai Feed Co. Ltd., and containing no antibacterial or anticoccidial additive.\nEimeria tenella GD strains, having no resistance to various anticoccidial drugs. Breeding and amplifying in chickens before the experiment, collecting fresh oocysts, sporulating, and preserving at 4° C. for later use.\nWeighing the 14-day-old experiment chickens one by one, rejecting emaciated or overweighted chickens, selecting healthy chickens of which the individual body weight difference is within 20 g, and dividing to 9 groups with 20 chickens in each group. Groups 1 and 2 are respectively a non-drug-applied and non-coccidium-killed control group and a coccidium-infected and non-drug-applied control group, and Groups 3-9 are experiment groups applied with different doses of the fluoroethyl thiamine hydrochloride according to Table 1. Adding different doses of drugs to feeds and mixing uniformly on the day of experiment grouping, enabling the chickens to freely take in the feeds, and feeding the chickens until the experiment ends.\nExcept the non-coccidium-infected and non-drug-applied control group (Group 1), giving each experiment chicken in each experiment group with 2.5×10^5 eimeria tenella sporulated oocysts via the crop on the next day of the grouping day. During experiment, observing and recording the spirit, appetite, bloody feces situation, death count and the like of the chickens every day. Performing bloody feces scoring on the chickens in each group 5 days after infecting. On the 7th day, respectively weighing all the chickens in each group, then autopsying them, observing cecum lesions and counting the oocysts in the cecum.\n2.3.1 Bloody feces scoring: according to the method in the references: 0 point, no bloody feces, 1 point, less than 25% of bloody feces; 2 points, 25%-50% of bloody feces; 3 points, 50%-75% of bloody feces; 4 points, more than 75% of bloody feces.\n2.3.2 Weight gain: respectively weighing each chicken when the experiment starts and ends, and calculating the average weight gain and relative weight gain rate. The relative weight gain rate=(the average weight gain in the experiment groups/the average weight gain in the non-infected and non-drug-applied control group)×100%.\n2.3.3 Survival rate: recording the number of dead chickens of each group, autopsying to determine the death cause, and calculating the survival rate. The survival rate=(the total number of the chickens in the experiment groups−the number of the chickens dying of coccidium infection during the experiment)/the total number of the chickens in the experiment groups×100%.\n2.3.4 Lesion standard: killing the chickens 7 days after infecting, performing cecum lesion scoring according to the lesion scoring of Johnson and Reid (1970), and converting lesion points to lesion values.\nlesion scoring (taking the serious side if the two sides of the cecum are inconsistent in lesion): 0 point, no macroscopic lesion; 1 point, a small amount of scattered petechiae on the cecum wall, no incrassation on the cecum wall, normal contents; 2 points, a large amount of lesion, obviously bloody contents in the cecum, slight incrassation on the cecum wall, normal contents; 3 points, a large a mount of blood or intestinal core (blood clot or gray caseous banana-shaped lumps) in the cecum, obvious incrassation on the cecum wall, a small amount of feces in the cecum; 4 points, cecum swelling caused by filling of a large amount of blood or intestinal core with or without feces in the intestinal core. Recording the dead chicken lesion as 4 points as well. […]",
  "note": "Where a name gives a salt, the structure may show the parent alone.",
  "data": [
    {"smiles": "CCc1ncc(C[n+]2csc(CCF)c2C)c(N)n1", "note": "[fluoroethyl thiamine hydrochloride, 3-[(4-amino-2-ethyl-5-pyrimidyl)-methylene]-5-(2-fluoroethyl)-4-methyl thiazole chloride hydrochloride]", "values": [
      {"measurement": "anticoccidial index (ACI)", "setting": "10 ppm in feed", "value": 136.7},
      {"measurement": "number of oocysts in cecum", "setting": "10 ppm in feed", "value": "2.965 ×10^6/chicken"},
      {"measurement": "lesion value", "setting": "10 ppm in feed", "value": 24.5},
      {"measurement": "survival rate", "setting": "10 ppm in feed", "value": 90, "unit": "%"},
      {"measurement": "average weight gain", "setting": "10 ppm in feed", "value": 135.7, "unit": "g/chicken"},
      {"measurement": "bloody feces scoring", "setting": "10 ppm in feed", "value": 2},
      {"measurement": "oocyst value", "setting": "10 ppm in feed", "value": 10},
      {"measurement": "relative weight gain rate", "setting": "10 ppm in feed", "value": 81.2, "unit": "%"},
      {"measurement": "anticoccidial index (ACI)", "setting": "25 ppm in feed", "value": 144.6},
      {"measurement": "number of oocysts in cecum", "setting": "25 ppm in feed", "value": "2.325 ×10^6/chicken"},
      {"measurement": "lesion value", "setting": "25 ppm in feed", "value": 18.8},
      {"measurement": "survival rate", "setting": "25 ppm in feed", "value": 90, "unit": "%"},
      {"measurement": "average weight gain", "setting": "25 ppm in feed", "value": 139.5, "unit": "g/chicken"},
      {"measurement": "bloody feces scoring", "setting": "25 ppm in feed", "value": 2},
      {"measurement": "oocyst value", "setting": "25 ppm in feed", "value": 10},
      {"measurement": "relative weight gain rate", "setting": "25 ppm in feed", "value": 83.4, "unit": "%"},
      {"measurement": "anticoccidial index (ACI)", "setting": "50 ppm in feed", "value": 165.5},
      {"measurement": "drug efficiency level judged from the anticoccidial index", "setting": "50 ppm in feed", "value": "intermediate-efficiency anticoccidial drugs (intermediate-efficiency anticoccidial drugs if 160≦ACI<180)"},
      {"measurement": "number of oocysts in cecum", "setting": "50 ppm in feed", "value": "3.65 ×10^6/chicken"},
      {"measurement": "lesion value", "setting": "50 ppm in feed", "value": 11.2},
      {"measurement": "survival rate", "setting": "50 ppm in feed", "value": 100, "unit": "%"},
      {"measurement": "average weight gain", "setting": "50 ppm in feed", "value": 144.9, "unit": "g/chicken"},
      {"measurement": "bloody feces scoring", "setting": "50 ppm in feed", "value": 1},
      {"measurement": "oocyst value", "setting": "50 ppm in feed", "value": 10},
      {"measurement": "relative weight gain rate", "setting": "50 ppm in feed", "value": 86.7, "unit": "%"},
      {"measurement": "anticoccidial index (ACI)", "setting": "75 ppm in feed", "value": 176.4},
      {"measurement": "drug efficiency level judged from the anticoccidial index", "setting": "75 ppm in feed", "value": "intermediate-efficiency anticoccidial drugs (intermediate-efficiency anticoccidial drugs if 160≦ACI<180)"},
      {"measurement": "number of oocysts in cecum", "setting": "75 ppm in feed", "value": "2.15 ×10^6/chicken"},
      {"measurement": "lesion value", "setting": "75 ppm in feed", "value": 8.5},
      {"measurement": "survival rate", "setting": "75 ppm in feed", "value": 100, "unit": "%"},
      {"measurement": "average weight gain", "setting": "75 ppm in feed", "value": 158.7, "unit": "g/chicken"},
      {"measurement": "bloody feces scoring", "setting": "75 ppm in feed", "value": 0},
      {"measurement": "oocyst value", "setting": "75 ppm in feed", "value": 10},
      {"measurement": "relative weight gain rate", "setting": "75 ppm in feed", "value": 94.9, "unit": "%"},
      {"measurement": "anticoccidial index (ACI)", "setting": "100 ppm in feed", "value": 195.9},
      {"measurement": "drug efficiency level judged from the anticoccidial index", "setting": "100 ppm in feed", "value": "high-efficiency anticoccidial drugs (high-efficiency anticoccidial drugs if ACI≧180)"},
      {"measurement": "number of oocysts in cecum", "setting": "100 ppm in feed", "value": "0.47 ×10^6/chicken"},
      {"measurement": "lesion value", "setting": "100 ppm in feed", "value": 0},
      {"measurement": "survival rate", "setting": "100 ppm in feed", "value": 100, "unit": "%"},
      {"measurement": "average weight gain", "setting": "100 ppm in feed", "value": 162.0, "unit": "g/chicken"},
      {"measurement": "bloody feces scoring", "setting": "100 ppm in feed", "value": 0},
      {"measurement": "oocyst value", "setting": "100 ppm in feed", "value": 1},
      {"measurement": "relative weight gain rate", "setting": "100 ppm in feed", "value": 96.9, "unit": "%"},
      {"measurement": "anticoccidial index (ACI)", "setting": "150 ppm in feed", "value": 201.4},
      {"measurement": "drug efficiency level judged from the anticoccidial index", "setting": "150 ppm in feed", "value": "high-efficiency anticoccidial drugs (high-efficiency anticoccidial drugs if ACI≧180)"},
      {"measurement": "number of oocysts in cecum", "setting": "150 ppm in feed", "value": "0.16 ×10^6/chicken"},
      {"measurement": "lesion value", "setting": "150 ppm in feed", "value": 0},
      {"measurement": "survival rate", "setting": "150 ppm in feed", "value": 100, "unit": "%"},
      {"measurement": "average weight gain", "setting": "150 ppm in feed", "value": 171.2, "unit": "g/chicken"},
      {"measurement": "bloody feces scoring", "setting": "150 ppm in feed", "value": 0},
      {"measurement": "oocyst value", "setting": "150 ppm in feed", "value": 1},
      {"measurement": "relative weight gain rate", "setting": "150 ppm in feed", "value": 102.4, "unit": "%"},
      {"measurement": "anticoccidial index (ACI)", "setting": "200 ppm in feed", "value": 200.8},
      {"measurement": "drug efficiency level judged from the anticoccidial index", "setting": "200 ppm in feed", "value": "high-efficiency anticoccidial drugs (high-efficiency anticoccidial drugs if ACI≧180)"},
      {"measurement": "number of oocysts in cecum", "setting": "200 ppm in feed", "value": "0 ×10^6/chicken"},
      {"measurement": "lesion value", "setting": "200 ppm in feed", "value": 0},
      {"measurement": "survival rate", "setting": "200 ppm in feed", "value": 100, "unit": "%"},
      {"measurement": "average weight gain", "setting": "200 ppm in feed", "value": 168.5, "unit": "g/chicken"},
      {"measurement": "bloody feces scoring", "setting": "200 ppm in feed", "value": 0},
      {"measurement": "oocyst value", "setting": "200 ppm in feed", "value": 0},
      {"measurement": "relative weight gain rate", "setting": "200 ppm in feed", "value": 100.8, "unit": "%"}
    ]}
  ]
}
